Experimental data published in patent US20210070748A1, “INHIBITORS OF BRUTONS TYROSINE KINASE” (Pharmacyclics LLC, priority 2015, published 2021).

Tests used:
BTK-WT = target: T1, BTK-WT (Homo sapiens, UniProt Q06187); assay: Btk in vitro inhibitory activity (one of Method A TR-FRET, Method B electrophoretic mobility shift, Method C radiometric filter binding); type: biochemical; conditions: D-compounds panel data; read-out: IC50 BTK-WT
T1 construct: purified from insect cells as a full-length construct containing an N-terminal 6X-His tag; His6 (N); made in house; host or cells: insect cells (baculovirus Sf21 in Method B)

LCK = LCK (Homo sapiens, UniProt P06239); assay: Inhibition of a panel of kinases, in vitro HotSpot kinase assay: LCK; type: biochemical; conditions: D-compounds panel data; 1 μM ATP; read-out: IC50 LCK
Sequence of LCK (P06239 whole entry): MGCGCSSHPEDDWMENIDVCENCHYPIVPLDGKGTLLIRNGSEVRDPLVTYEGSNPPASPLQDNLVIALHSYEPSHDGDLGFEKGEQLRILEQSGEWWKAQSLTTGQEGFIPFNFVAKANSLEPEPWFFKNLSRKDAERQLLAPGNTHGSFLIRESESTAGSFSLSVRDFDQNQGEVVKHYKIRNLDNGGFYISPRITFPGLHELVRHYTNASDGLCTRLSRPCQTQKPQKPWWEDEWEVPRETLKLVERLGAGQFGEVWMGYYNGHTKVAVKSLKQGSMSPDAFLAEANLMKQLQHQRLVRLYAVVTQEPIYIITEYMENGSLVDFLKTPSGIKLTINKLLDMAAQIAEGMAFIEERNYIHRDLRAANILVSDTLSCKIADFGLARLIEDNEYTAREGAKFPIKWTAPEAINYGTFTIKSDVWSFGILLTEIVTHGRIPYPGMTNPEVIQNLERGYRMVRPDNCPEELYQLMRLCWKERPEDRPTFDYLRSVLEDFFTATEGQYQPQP

T1 sequence (Q06187 whole entry): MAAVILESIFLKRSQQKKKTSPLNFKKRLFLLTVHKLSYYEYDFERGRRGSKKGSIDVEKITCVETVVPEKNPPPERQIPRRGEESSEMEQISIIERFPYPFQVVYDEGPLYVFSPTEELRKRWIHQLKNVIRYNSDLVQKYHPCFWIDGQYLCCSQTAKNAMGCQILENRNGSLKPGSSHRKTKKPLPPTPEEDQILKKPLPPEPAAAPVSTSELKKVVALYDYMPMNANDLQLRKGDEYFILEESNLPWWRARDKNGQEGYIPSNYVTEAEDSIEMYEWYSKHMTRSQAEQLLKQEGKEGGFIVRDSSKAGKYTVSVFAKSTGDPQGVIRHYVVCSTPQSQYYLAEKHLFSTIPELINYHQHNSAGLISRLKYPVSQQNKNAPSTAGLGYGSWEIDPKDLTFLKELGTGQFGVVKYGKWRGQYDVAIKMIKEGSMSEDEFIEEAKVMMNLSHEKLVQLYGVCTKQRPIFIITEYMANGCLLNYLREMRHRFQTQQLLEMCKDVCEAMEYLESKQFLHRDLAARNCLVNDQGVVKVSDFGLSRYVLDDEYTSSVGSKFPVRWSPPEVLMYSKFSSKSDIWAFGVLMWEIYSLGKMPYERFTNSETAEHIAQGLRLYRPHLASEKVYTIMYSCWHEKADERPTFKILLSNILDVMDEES

| Structure (SMILES) | IC50 (BTK-WT) | IC50 (LCK) |
| --- | --- | --- |
| C[C@@H]1[C@H](NC(=O)c2ccc(C(O)(C(F)(F)F)C(F)(F)F)cc2)CCCN1c1cnc(C(N)=O)c(Nc2cnn(C)c2)n1 [Example D-240, 5-[(2R,3R)-3-[4-(1,1,1,3,3,3-hexafluoro-2-hydroxypropan-2-yl)benzamido]-2-methylpiperidin-1-yl]-3-[(1-methyl-1H-pyrazol-4-yl)amino]pyrazine-2-carboxamide] | ≤ 10 nM | 100 to 1000 nM |
| C[C@@H]1[C@H](NC(=O)c2ccc(SC(F)(F)F)cc2)CCCN1c1cnc(C(N)=O)c(Nc2cnn(C)c2)n1 [Example D-241, 3-[(1-methyl-1H-pyrazol-4-yl)amino]-5-[(2R,3R)-2-methyl-3-{4-[(trifluoromethyl)sulfanyl]benzamido}piperidin-1-yl]pyrazine-2-carboxamide] | ≤ 10 nM | 100 to 1000 nM |
| Cc1nc2cc(C(=O)N[C@@H]3CCCN(c4cnc(C(N)=O)c(Nc5cnn(C)c5)n4)[C@@H]3C)ccc2s1 [Example D-242, N-[(2R,3R)-1-{5-carbamoyl-6-[(1-methyl-1H-pyrazol-4-yl)amino]pyrazin-2-yl}-2-methylpiperidin-3-yl]-2-methyl-1,3-benzothiazole-5-carboxamide] | ≤ 10 nM | 100 to 1000 nM |
